The results in this text go back to US8937091B2 (Japan Science and Technology Agency, priority 2009, dated 2015).

The test system of assay [1] is SOCE (store operated calcium entry) in CHO cells. As to the kind of experiment: Assay of SOCE (store operated calcium entry)-inhibiting action. In kind it is cell-based, Chinese hamster. To be noted: CHO cells, thapsigargin; for inhibition at 10 µM / inhibition at 30 µM / inhibition at 100 µM: Cricetulus griseus, CHO, read-out: SOCE level (percentage of inhibition). A digest of the protocol: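 CHO cells in calcium-free BSS received compound, then 1 μM thapsigargin 2 min later to deplete stores; after 9 min, 2 mM calcium chloride (final) added. Percent inhibition of the rise in intracellular calcium determined at various compound concentrations.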

In assay [2] the test system is IICR (IP3 induced calcium release) in CHO cells. Description: Assay of IICR (IP3 induced calcium release)-inhibiting action. It counts as cell-based, Chinese hamster. To be noted: CHO cells, 10 μM ATP; for inhibition at 10 µM / inhibition at 30 µM / inhibition at 100 µM: Cricetulus griseus, CHO, read-out: IICR level (percentage of inhibition). A digest of the protocol:
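Inhibition (%) of the intracellular calcium increase triggered by 10 μM ATP, measured in CHO cells in BSS with calcium. Compound given 1 min after the buffer exchange and 2 min before ATP; values reported per compound concentration.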

`CC(CN(C)CCO)C(=O)c1ccc(F)cc1` (stereo not drawn) [Example 163, 2-(N-hydroxyethylmethyl)amino-1-methylethyl-4-fluorophenylketone]: the inhibition at 10 µM in assay [1] (test compound 10 μmol) and in assay [2] (test compound 10 μmol) was 0% in each case. Besides, the inhibition at 30 µM in assay [1] (test compound 30 μmol) and in assay [2] (test compound 30 μmol) was 0% each time. Besides, the inhibition (as a rule, the change of the read-out against control, counted positive when it falls) at 100 µM in assay [1] (test compound 100 μmol) stood at 20%; in assay [2] (test compound 100 μmol), 0%.

Turning to `Cn1cccc1C(=O)CCN(CCO)Cc1ccccc1` [Example 164, 2-(N-benzyl-2-hydroxyethyl)aminoethyl-2-(N-methylpyrrolyl)ketone], the inhibition at 10 µM in assay [1] (test compound 10 μmol) and in assay [2] (test compound 10 μmol) was 0% throughout. For the same molecule, the inhibition at 30 µM in assay [1] (test compound 30 μmol) and in assay [2] (test compound 30 μmol) was 0% each time. For the same molecule, the inhibition at 100 µM came out at 10% in assay [1] (test compound 100 μmol) and 40% in assay [2] (test compound 100 μmol).

As to `Cn1cccc1C(=O)CCN(Cc1ccccc1)C(C)(C)C` [Example 165, 2-(N-benzyl-t-butyl)aminoethyl-2-(N-methylpyrrolyl)ketone], the inhibition at 10 µM in assay [1] (test compound 10 μmol) and in assay [2] (test compound 10 μmol) was 0% in each case. The inhibition at 30 µM in assay [1] (test compound 30 μmol) and in assay [2] (test compound 30 μmol) was 0% throughout. Moreover, the inhibition at 100 µM in assay [1] (test compound 100 μmol) and in assay [2] (test compound 100 μmol) was 0% in each case.

As to `CC(C)N(CCO)CCC(=O)c1ccc(F)cc1` [Example 166, 2-(N-hydroxyethylisopropyl)aminoethyl-4-fluorophenylketone], the inhibition at 10 µM in assay [1] (test compound 10 μmol) and in assay [2] (test compound 10 μmol) was 0% each time. For the same molecule, the inhibition at 30 µM in assay [1] (test compound 30 μmol) and in assay [2] (test compound 30 μmol) was 0% in each case. For the same molecule, the inhibition at 100 µM in assay [1] (test compound 100 μmol) amounted to 20%; in assay [2] (test compound 100 μmol), 0%.

As for `CN(CCO)CCC(=O)c1cccn1C` [Example 167, 2-(N-methyl-2-hydroxyethyl)aminoethyl-2-(N-methylpyrrolyl)ketone], the inhibition at 10 µM in assay [1] (test compound 10 μmol) and in assay [2] (test compound 10 μmol) was 0% in each case. The inhibition at 30 µM in assay [1] (test compound 30 μmol) and in assay [2] (test compound 30 μmol) was 0% each time. The inhibition at 100 µM in assay [1] (test compound 100 μmol) and in assay [2] (test compound 100 μmol) was 0% in each case.

Turning to `CC(C)N(CC(=O)c1ccccc1)Cc1ccccc1` [Example 168, 2-(N-isopropylbenzyl)aminomethyl-4-phenylketone], the inhibition at 10 µM in assay [1] (test compound 10 μmol) and in assay [2] (test compound 10 μmol) was 0% each time. For the same molecule, the inhibition at 30 µM in assay [1] (test compound 30 μmol) and in assay [2] (test compound 30 μmol) was 0% throughout. For the same molecule, the inhibition at 100 µM in assay [1] (test compound 100 μmol) is 50%; in assay [2] (test compound 100 μmol), 70%.

On to `CC(C)N(CCO)CCC(=O)c1cccn1C` [Example 169, 2-(N-isopropyl-2-hydroxyethyl)aminoethyl-2-(N-methylpyrrolyl)ketone], for which the inhibition at 10 µM in assay [1] (test compound 10 μmol) and in assay [2] (test compound 10 μmol) was 0% in each case. In addition, the inhibition at 30 µM in assay [1] (test compound 30 μmol) and in assay [2] (test compound 30 μmol) was 0% throughout. Moreover, the inhibition at 100 µM in assay [1] (test compound 100 μmol) and in assay [2] (test compound 100 μmol) was 0% throughout.

`CC(C)N(CCO)CCC(=O)c1ccc[nH]1` [Example 170, 2-(N-isopropyl-2-hydroxyethyl)aminoethyl-2-pyrrolylketone]: the inhibition at 10 µM in assay [1] (test compound 10 μmol) and in assay [2] (test compound 10 μmol) was 0% in each case. Also, the inhibition at 30 µM in assay [1] (test compound 30 μmol) and in assay [2] (test compound 30 μmol) was 0% each time. Further, the inhibition at 100 µM in assay [1] (test compound 100 μmol) and in assay [2] (test compound 100 μmol) was 0% throughout.

On to `C=CC(=O)c1ccco1` [Example 171, 2-furyl vinylketone], for which the inhibition at 10 µM in assay [1] (test compound 10 μmol) and in assay [2] (test compound 10 μmol) was 0% each time. For the same molecule, the inhibition at 30 µM in assay [1] (test compound 30 μmol) came to 10%; in assay [2] (test compound 30 μmol) it was 0%. Also, the inhibition at 100 µM in assay [1] (test compound 100 μmol) stood at 30%; in assay [2] (test compound 100 μmol), 0%.

As to `CC(C)N(CCO)CCC(=O)c1ccco1` [Example 172, 2-(N-isopropylhydroxyethyl)aminoethyl-2-furylketone], the “SOCE level (percentage of inhibition)” value in assay [1] (test compound 10 μmol), in assay [1] (test compound 30 μmol) and in assay [1] (test compound 100 μmol) was 0% each time. In addition, the inhibition at 10 µM in assay [2] (test compound 10 μmol) was found to be 0%.

Regarding `O=C(CCN(CCO)Cc1ccccc1)c1ccc[nH]1` [Example 173, 2-(N-benzylhydroxyethyl)aminoethyl-2-pyrrolylketone], the inhibition at 10 µM in assay [1] (test compound 10 μmol) and in assay [2] (test compound 10 μmol) was 0% each time. For the same molecule, the inhibition at 30 µM was found to be 0% in assay [1] (test compound 30 μmol) and 50% in assay [2] (test compound 30 μmol). Further, the inhibition at 100 µM in assay [1] (test compound 100 μmol) was determined as 0%; in assay [2] (test compound 100 μmol) it was 80%.

For the molecule `O=C(CCN(CCO)CCO)c1ccco1` [Example 174, 2-(N-bis(hydroxyethyl))aminoethyl-2-furylketone], the “SOCE level (percentage of inhibition)” value in assay [1] (test compound 10 μmol), in assay [1] (test compound 30 μmol) and in assay [1] (test compound 100 μmol) was 0% throughout. Moreover, the “IICR level (percentage of inhibition)” value in assay [2] (test compound 10 μmol), in assay [2] (test compound 30 μmol) and in assay [2] (test compound 100 μmol) was 0% each time.

Turning to `CN(CCC(=O)c1ccc[nH]1)Cc1ccccc1` [Example 175, 2-(N-benzylmethyl)aminoethyl-2-pyrrolylketone], the inhibition at 10 µM in assay [1] (test compound 10 μmol) amounted to 0%; in assay [2] (test compound 10 μmol), 10%. For the same molecule, the results for the inhibition at 30 µM in assay [1] (test compound 30 μmol) and in assay [2] (test compound 30 μmol) were 0% and 10%, respectively. Moreover, the inhibition at 100 µM in assay [1] (test compound 100 μmol) is 0%; in assay [2] (test compound 100 μmol) it was 20%.

`O=C(CCNCCc1ncc[nH]1)c1cccnc1` [Example 176]: the results for the inhibition at 10 µM in assay [1] (test compound 10 μmol) and in assay [2] (test compound 10 μmol) were 0% and 10%, respectively. Moreover, the inhibition at 30 µM amounted to 0% in assay [1] (test compound 30 μmol) and 30% in assay [2] (test compound 30 μmol). In addition, the inhibition at 100 µM in assay [1] (test compound 100 μmol) worked out at 0%; in assay [2] (test compound 100 μmol) it was 50%.

For `O=C(CCN(CCO)Cc1ccccc1)c1cccnc1` [Example 177, 2-(N-2-hydroxyethylbenzyl)aminoethyl-3-pyridylketone], the inhibition at 10 µM in assay [1] (test compound 10 μmol) and in assay [2] (test compound 10 μmol) was 0% each time. For the same molecule, the inhibition at 30 µM in assay [1] (test compound 30 μmol) and in assay [2] (test compound 30 μmol) was 0% throughout. The inhibition at 100 µM in assay [1] (test compound 100 μmol) is 0%; in assay [2] (test compound 100 μmol), 50%.

Turning to `CC(C)N(CCO)CCCC(=O)c1ccccc1` [Example 178, 3-(N-isopropylhydroxyethyl)aminopropylphenylketone], the inhibition at 10 µM in assay [1] (test compound 10 μmol) is 0%. Besides, in assay [1] (test compound 30 μmol), the inhibition at 30 µM was 0%. Also, the “IICR level (percentage of inhibition)” value in assay [2] (test compound 10 μmol), in assay [2] (test compound 30 μmol) and in assay [2] (test compound 100 μmol) was 0% throughout.

Regarding `CC(C)N(CCCC(=O)c1ccccc1)Cc1ccccc1` [Example 179, 3-(N-isopropylbenzyl)aminopropylphenylketone], the inhibition at 10 µM in assay [1] (test compound 10 μmol) and in assay [2] (test compound 10 μmol) was 0% each time. Besides, the inhibition at 30 µM in assay [1] (test compound 30 μmol) and in assay [2] (test compound 30 μmol) was 0% each time. For the same molecule, the inhibition at 100 µM in assay [1] (test compound 100 μmol) and in assay [2] (test compound 100 μmol) was 0% each time.

As for `CCCCN(CCO)CCC(=O)c1cccnc1` [Example 180, 2-(N-2-hydroxyethylbutyl)aminoethyl-3-pyridylketone], the inhibition at 10 µM in assay [1] (test compound 10 μmol) and in assay [2] (test compound 10 μmol) was 0% throughout. In addition, the inhibition at 30 µM in assay [1] (test compound 30 μmol) and in assay [2] (test compound 30 μmol) was 0% throughout. The inhibition at 100 µM came out at 0% in assay [1] (test compound 100 μmol) and 50% in assay [2] (test compound 100 μmol).

As to `CC(CN(CCO)C(C)C)C(=O)c1ccccc1F` (stereo not drawn) [Example 181, 1-methyl-2-(N-hydroxyethylisopropyl)aminoethyl-2-fluorophenylketone], the figures for the inhibition at 10 µM in assay [1] (test compound 10 μmol) and in assay [2] (test compound 10 μmol) were 20% and 0%, respectively. Besides, the results for the inhibition at 30 µM in assay [1] (test compound 30 μmol) and in assay [2] (test compound 30 μmol) were 40% and 10%, respectively. The inhibition at 100 µM in assay [1] (test compound 100 μmol) turned out to be 80%; in assay [2] (test compound 100 μmol) it was 20%.

As for `CC(CN(Cc1ccccc1)C(C)C)C(=O)c1ccccc1F` (stereo not drawn) [Example 182, 1-methyl-2-(N-benzylisopropyl)aminoethyl-2-fluorophenylketone], the inhibition at 10 µM in assay [1] (test compound 10 μmol) was determined as 10%; in assay [2] (test compound 10 μmol) it was 0%. The results for the inhibition at 30 µM in assay [1] (test compound 30 μmol) and in assay [2] (test compound 30 μmol) were 50% and 0%, respectively. Moreover, the inhibition at 100 µM in assay [1] (test compound 100 μmol) worked out at 80%; in assay [2] (test compound 100 μmol) it was 50%.

As for `CC(C)N(CCC(=O)c1cccs1)Cc1ccccc1` [Example 183, 2-(N-isopropylbenzyl)aminoethyl-2-thiophenylketone], the inhibition at 10 µM in assay [1] (test compound 10 μmol) and in assay [2] (test compound 10 μmol) was 0% each time. Moreover, the inhibition at 30 µM in assay [1] (test compound 30 μmol) and in assay [2] (test compound 30 μmol) was 0% throughout. In addition, the values for the inhibition at 100 µM in assay [1] (test compound 100 μmol) and in assay [2] (test compound 100 μmol) were 20% and 50%, respectively.

Consider `O=C(CCN(CCO)Cc1ccccc1)c1ccsc1` [Example 184, 2-(N-2-hydroxyethylbenzyl)aminoethyl-3-thiophenylketone], for which the inhibition at 10 µM in assay [1] (test compound 10 μmol) came to 0%; in assay [2] (test compound 10 μmol), 30%. In addition, the values for the inhibition at 30 µM in assay [1] (test compound 30 μmol) and in assay [2] (test compound 30 μmol) were 0% and 50%, respectively. Besides, the figures for the inhibition at 100 µM in assay [1] (test compound 100 μmol) and in assay [2] (test compound 100 μmol) were 0% and 60%, respectively.
